Results as given in patent US20090048196A1, “Membrane receptor for retinol binding protein mediates cellular uptake of vitamin A, methods of use and compositions” (THE REGENTS OF THE UNIVERSITY OF CALIFORNIA, priority 2007, published 2009).

Tests used:
Format in all cases: cell-based
human STRA6 = assay: STRA6 expression in WiDr cells (semi-quantitative PCR); details: 100 nM RNAi oligo, 65 hrs
Procedure: RNAi transfection and retinoic acid treatment of human WiDr colon adenocarcinoma cells: WiDr cells (American Type Culture Collection) were grown in Earle's balanced salt media with 10% FBS at 37° C. in a 95% air/5% CO2 humidified incubator. Human STRA6 RNAi oligo sequences were 5′-[…]-3′ (S-1) (SEQ ID NO:3), 5′-[…]-3′ (S-2) (SEQ ID NO:4); and 5′-[…]-3′ (S-3) (SEQ ID NO:5). Stealth™ negative control RNAi with medium GC (Invitrogen) was used for a negative control. WiDr cells were transfected with 100 nM RNAi oligos using DharmaFect1 (Dharmacon) according to the manufacture's protocol. WiDr Cells were split one day before RNAi transfection and cells were incubated with RNAi oligos for 65 hrs after transfection. Retinoic acid treatment was applied for 55 hours. RNA was isolated from WiDr cells using the RNeasy kit (Qiagen). Reverse transcription was performed with Invitrogen's SuperScriptIII First-Strand Synthesis System. Semi-Quantitative PCR was carried out for 24 cycles at 95° C. for 30 sec (denaturation), 63° C. for 30 sec (annealing), and 72° C. for 30 min (extension). cDNA synthesized from 40 ng of total RNA was used for each reaction. Primers used for PCR to detect human STRA6 were 5′-[…]-3′ (human STRA6 forward primer (SEQ ID NO:6)), 5′-[…]-3′ (human STRA6 reverse primer (SEQ ID NO:7)).

[1] = tested on: WiDr human colon adenocarcinoma cells; assay: Vitamin A uptake activity of WiDr cells from 3H-retinol/RBP; details: 100 nM RNAi oligo, 65 hrs
Procedure: (§1) Production of ^3H-retinol loaded RBP and retinol uptake assay based on ^3H-retinol/RBP: Apo-RBP was prepared from holo-RBP as described (3). Radioactive retinol (15-^3H(N)-retinol) was purchased from American Radiolabeled Chemicals Inc. Ten micrograms apo-His-RBP was incubated with 150 pmol retinol (3 μCi) at 24° C. overnight. Radiolabeled holo-His-RBP was bound to Ni-NTA resin and the resin was washed extensively with 10 mM imidazole in PBS. Radiolabeled His-RBP was eluted with 100 mM imidazole in PBS. For the vitamin A uptake assay, transfected or untransfected cells grown on 12-well or 24-well cell culture plates were washed once with PBS and incubated with the ^3H-retinol/RBP diluted in SFM for various lengths of time. The reactions were stopped by washing the cells with PBS and solubilizing cells in 1% Triton X-100 in PBS. Radioactivity was measured with a scintillation counter.
Effects of metabolic inhibitors on vitamin A uptake and endocytosis: To test the effect of metabolic inhibitors, cells were pretreated with metabolic inhibitors in serum free medium (50 mM 2-deoxyglucose and 5 mM sodium azide) at 37° C. for 30 min before incubation with ^3H-retinol/RBP for 45 min at 37° C. in the continued presence of the metabolic inhibitors. The slight increase in activity for MI-treated cells as shown in FIGS. 4C and 4D is reproducible. Endocytosis assay based on horseradish peroxidase (HRP) was performed similarly as described. Cells (80-100% confluence) were washed once with PBS and then incubated in SFM with or without metabolic inhibitors for 30 min at 37° C. […]
RNAi transfection and retinoic acid treatment of human WiDr colon adenocarcinoma cells: WiDr cells (American Type Culture Collection) were grown in Earle's balanced salt media with 10% FBS at 37° C. in a 95% air/5% CO2 humidified incubator. […] Semi-Quantitative PCR was carried out for 24 cycles at 95° C. for 30 sec (denaturation), 63° C. for 30 sec (annealing), and 72° C. for 30 min (extension). cDNA synthesized from 40 ng of total RNA was used for each reaction. […]

[2] = tested on: primary bovine RPE culture; assay: Vitamin A uptake activity of primary bovine RPE culture from holo-RBP; details: 100 nM RNAi oligo, transfected twice, 72 h each
Procedure: as §1
Primary culture and RNAi transfection of bovine RPE cells: Primary cultures of RPE cells were derived from adult bovine eyes obtained from a local slaughterhouse. After the removal of vitreous and retina, the posterior half of the eye was incubated in 2% Dispase solution (Boehringer Mannheim) for 2 h. Sheets of RPE cells were then collected and washed with Hanks' Balanced salt solution (Irvine Scientific). The RPE cells were exposed to 0.05% Trypsin and 0.02% EDTA solution for 5 minutes at room temperature. The RPE cells were suspended in CEM replacement medium containing 10% calf serum and 1% penicillin-streptomycin as described previously (12), and the cells were then seeded at a density of 3×10^5 cells/cm^2 onto 12 mm millicell-PCF culture wells with a pore size of 0.45 um (Millipore Corp.). The RPE cells were maintained at 37° C. in a 5% CO2 incubator for 10 days before RNAi transfection. […] Semi-quantitative PCR was carried out for 26 cycles at 95° C. for 30 sec (denaturation), 60° C. for 30 sec (annealing), and 72° C. for 30 min (extension). cDNA synthesized from 32 ng of total RNA was used for each reaction. […]

bovine STRA6 = assay: STRA6 expression in primary bovine RPE culture (semi-quantitative PCR); details: 100 nM RNAi oligo, transfected twice, 72 h each
Procedure: Primary culture and RNAi transfection of bovine RPE cells: Primary cultures of RPE cells were derived from adult bovine eyes obtained from a local slaughterhouse. After the removal of vitreous and retina, the posterior half of the eye was incubated in 2% Dispase solution (Boehringer Mannheim) for 2 h. Sheets of RPE cells were then collected and washed with Hanks' Balanced salt solution (Irvine Scientific). The RPE cells were exposed to 0.05% Trypsin and 0.02% EDTA solution for 5 minutes at room temperature. The RPE cells were suspended in CEM replacement medium containing 10% calf serum and 1% penicillin-streptomycin as described previously (12), and the cells were then seeded at a density of 3×10^5 cells/cm^2 onto 12 mm millicell-PCF culture wells with a pore size of 0.45 um (Millipore Corp.). The RPE cells were maintained at 37° C. in a 5% CO2 incubator for 10 days before RNAi transfection. For RNAi transfection, bovine RPE cells were washed once with PBS and incubated in fresh DMEM/10% FBS media. Cells were transfected with 100 nM RNAi oligos (Stealth RNAi, Invitrogen) using DharmaFect1 according to manufacturer's protocol and incubated at 37° C. for 72 h. Cells were then transfected under the same conditions and incubated for another 72 h. RNAi oligo sequences used for this assay were 5′-[…]-3′ (S-4) (SEQ ID NO:8), 5′-[…]-3′ (S-5) (SEQ ID NO:9) and 5′-[…]-3′ (S-6) (SEQ ID NO:10). Semi-quantitative PCR was carried out for 26 cycles at 95° C. for 30 sec (denaturation), 60° C. for 30 sec (annealing), and 72° C. for 30 min (extension). cDNA synthesized from 32 ng of total RNA was used for each reaction. Primers used for PCR reaction to detect bovine STRA6 are 5′-[…]-3′ (forward primer (SEQ ID NO:11)), 5′-[…]-3′ (reverse primer (SEQ ID NO:12)).

| Substance | STRA6 expression (human STRA6) | Vitamin A uptake activity [1] | Vitamin A uptake activity [2] | STRA6 expression (bovine STRA6) |
| --- | --- | --- | --- | --- |
| S-1: Human STRA6 RNAi oligo 5′-UGAAGCUCAUCCAACAGAAUAUGGC-3′ (SEQ ID NO:3) (listed as RNA, chemistry not given here) | suppresses | suppresses | – | – |
| S-2: Human STRA6 RNAi oligo 5′-UAGAUGCAGUGUCUCAAGCAGACGC-3′ (SEQ ID NO:4) (listed as RNA, chemistry not given here) | suppresses | suppresses | – | – |
| S-3: Human STRA6 RNAi oligo 5′-UGAGUAAGCAGGACAAGACCAAGGC-3′ (SEQ ID NO:5) (listed as RNA, chemistry not given here) | suppresses | suppresses | – | – |
| S-4: Bovine STRA6 RNAi oligo 5′-CCGUCUACAUUCCACAACAAGGAUU-3′ (SEQ ID NO:8) (listed as RNA, chemistry not given here) | – | – | suppresses | suppresses |
| S-5: Bovine STRA6 RNAi oligo 5′-GGCUACCACACAUACUGCAACUUCU-3′ (SEQ ID NO:9) (listed as RNA, chemistry not given here) | – | – | suppresses | suppresses |
| S-6: Bovine STRA6 RNAi oligo 5′-GAGGAUUCCUAUGACAGCUGGUACA-3′ (SEQ ID NO:10) (listed as RNA, chemistry not given here) | – | – | suppresses | suppresses |
